Reference: US10576062B2, “Carbamoyloxymethyl triazole cyclohexyl acids as LPA antagonists” (Bristol-Myers Squibb Company, priority 2016, dated 2020)

target: T1, human LPA1 (Homo sapiens, UniProt Q92633); assay: LPA1 functional antagonist assay (LPA-induced calcium flux); assay type: cell-based; details: read-out: hLPA1 IC50
T1 construct: expressed in transfected cells; host or cells: Chinese hamster ovary (CHO) cells
Method in brief: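 CHO cells overexpressing human LPA1, loaded with calcium dye 30 min at 37° C, were preincubated 20 min at room temperature with compound (0.08 nM–5 μM, 0.5% DMSO) in HBSS/20 mM HEPES/0.1% fatty acid-free BSA.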

T1 sequence (Q92633 whole entry): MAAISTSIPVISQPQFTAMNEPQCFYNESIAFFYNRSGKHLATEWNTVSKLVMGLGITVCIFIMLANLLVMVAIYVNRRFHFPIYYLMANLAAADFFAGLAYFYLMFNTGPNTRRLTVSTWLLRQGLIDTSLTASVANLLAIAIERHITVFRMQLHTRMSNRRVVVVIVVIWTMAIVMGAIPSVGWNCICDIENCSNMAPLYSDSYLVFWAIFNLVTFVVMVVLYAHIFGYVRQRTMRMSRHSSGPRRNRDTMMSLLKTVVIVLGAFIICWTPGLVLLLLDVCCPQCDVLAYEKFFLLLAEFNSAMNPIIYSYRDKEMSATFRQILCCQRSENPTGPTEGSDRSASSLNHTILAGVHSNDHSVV

| IC50 | Structure (SMILES) |
| --- | --- |
| 17 nM | Cc1nc(-c2nnn(C)c2COC(=O)N(C)[C@H](C)c2ccccc2)ccc1O[C@H]1CCC[C@H](C(=O)O)C1 [Example 19, (1S,3S)-3-((2-methyl-6-(1-methyl-5-(((methyl((R)-1-phenylethyl)carbamoyl)oxy)methyl)-1H-1,2,3-triazol-4-yl)pyridin-3-yl)oxy)cyclohexane-1-carboxylic acid] |
| 21 nM | C[C@H](c1ccccc1)N(C)C(=O)OCc1c(-c2ccc(O[C@H]3CCC[C@H](C(=O)O)C3)cn2)nnn1C [Example 21, (1S,3S)-3-((6-(1-methyl-5-(((methyl((R)-1-phenylethyl)carbamoyl)oxy)methyl)-1H-1,2,3-triazol-4-yl)pyridin-3-yl)oxy)cyclohexane-1-carboxylic acid] |
| 18 nM | CN(Cc1ccccc1)C(=O)OCc1c(-c2ccc(O[C@H]3CCC[C@H](C(=O)O)C3)cn2)nnn1C [Example 22, (1S,3S)-3-((6-(5-(((benzyl(methyl)carbamoyl)oxy)methyl)-1-methyl-1H-1,2,3-triazol-4-yl)pyridin-3-yl)oxy)cyclohexane-1-carboxylic acid] |
| 12 nM | CN(CC1CCC1)C(=O)OCc1c(-c2ccc(O[C@H]3CCC[C@H](C(=O)O)C3)cn2)nnn1C [Example 23, (1S,3S)-3-((6-(5-((((cyclobutylmethyl)(methyl)carbamoyl)oxy)methyl)-1-methyl-1H-1,2,3-triazol-4-yl)pyridin-3-yl)oxy)cyclohexane-1-carboxylic acid] |
| 20 nM | C[C@H](C1CC1)N(C)C(=O)OCc1c(-c2ccc(O[C@H]3CCC[C@H](C(=O)O)C3)cn2)nnn1C [Example 25, (1S,3S)-3-((6-(5-(((((R)-1-cyclopropylethyl)(methyl)carbamoyl)oxy)methyl)-1-methyl-1H-1,2,3-triazol-4-yl)pyridin-3-yl)oxy)cyclohexane-1-carboxylic acid] |
| 34 nM | CN(Cc1ccccc1)C(=O)OCc1c(-c2ccc(O[C@H]3CCC[C@H](C(=O)O)C3)c(F)c2)nnn1C [Example 26, (1S,3S)-3-(4-(5-(((benzyl(methyl)carbamoyl)oxy)methyl)-1-methyl-1H-1,2,3-triazol-4-yl)-2-fluorophenoxy)cyclohexane-1-carboxylic acid] |
| 14 nM | CN(CC1CCC1)C(=O)OCc1c(-c2ccc(O[C@H]3CCC[C@H](C(=O)O)C3)c(F)c2)nnn1C [Example 27, (1S,3S)-3-(4-(5-((((cyclobutylmethyl)(methyl)carbamoyl)oxy)methyl)-1-methyl-1H-1,2,3-triazol-4-yl)-2-fluorophenoxy)cyclohexane-1-carboxylic acid] |
| 41 nM | Cc1nc(-c2nnn(C)c2COC(=O)N(C)[C@H](C)C2CC2)ccc1O[C@H]1CCC[C@H](C(=O)O)C1 [Example 29, (1S,3S)-3-((6-(5-(((((R)-1-cyclopropylethyl)(methyl)carbamoyl)oxy)methyl)-1-methyl-1H-1,2,3-triazol-4-yl)-2-methylpyridin-3-yl)oxy)cyclohexane-1-carboxylic acid] |
| 16 nM | Cc1nc(-c2nnn(C)c2COC(=O)N(C)Cc2ccccc2)ccc1O[C@H]1CCC[C@H](C(=O)O)C1 [Example 30, (1S,3S)-3-((6-(5-(((benzyl(methyl)carbamoyl)oxy)methyl)-1-methyl-1H-1,2,3-triazol-4-yl)-2-methylpyridin-3-yl)oxy)cyclohexane-1-carboxylic acid] |
| 16 nM | Cc1nc(-c2nnn(C)c2COC(=O)N(C)CCC(C)C)ccc1O[C@H]1CCC[C@H](C(=O)O)C1 [Example 34, (1S,3S)-3-((6-(5-(((isopentyl(methyl)carbamoyl)oxy)methyl)-1-methyl-1H-1,2,3-triazol-4-yl)-2-methylpyridin-3-yl)oxy)cyclohexane-1-carboxylic acid] |
| 284 nM | Cc1nc(-c2nnn(C)c2COC(=O)N(C)Cc2ccc(Cl)cc2)ccc1O[C@H]1CCC[C@H](C(=O)O)C1 [Example 35, (1S,3S)-3-((6-(5-((((4-chlorobenzyl)(methyl)carbamoyl)oxy)methyl)-1-methyl-1H-1,2,3-triazol-4-yl)-2-methylpyridin-3-yl)oxy)cyclohexane-1-carboxylic acid] |
| 6 nM | Cc1cc(-c2nnn(C)c2COC(=O)N(C)[C@H](C)C2CC2)ccc1O[C@H]1CCC[C@H](C(=O)O)C1 [Example 36, (1S,3S)-3-(4-(5-(((((R)-1-cyclopropylethyl)(methyl)carbamoyl)oxy)methyl)-1-methyl-1H-1,2,3-triazol-4-yl)-2-methylphenoxy)cyclohexane-1-carboxylic acid] |
| 14 nM | Cc1cc(-c2nnn(C)c2COC(=O)N(C)CC2CCC2)ccc1O[C@H]1CCC[C@H](C(=O)O)C1 [Example 37, (1S,3S)-3-(4-(5-((((cyclobutylmethyl)(methyl)carbamoyl)oxy)methyl)-1-methyl-1H-1,2,3-triazol-4-yl)-2-methylphenoxy)cyclohexane-1-carboxylic acid] |
| 32 nM | Cc1cc(-c2nnn(C)c2COC(=O)N(C)Cc2ccccc2)ccc1O[C@H]1CCC[C@H](C(=O)O)C1 [Example 38, (1S,3S)-3-(4-(5-(((benzyl(methyl)carbamoyl)oxy)methyl)-1-methyl-1H-1,2,3-triazol-4-yl)-2-methylphenoxy)cyclohexane-1-carboxylic acid] |
| 28 nM | CCCCN(C)C(=O)OCc1c(-c2ccc(O[C@H]3CCC[C@H](C(=O)O)C3)c(C)c2)nnn1C [Example 40, (1S,3S)-3-(4-(5-(((butyl(methyl)carbamoyl)oxy)methyl)-1-methyl-1H-1,2,3-triazol-4-yl)-2-methylphenoxy)cyclohexane-1-carboxylic acid] |
| 14 nM | Cc1cc(-c2nnn(C)c2COC(=O)N(C)C2CCCC2)ccc1O[C@H]1CCC[C@H](C(=O)O)C1 [Example 41, (1S,3S)-3-(4-(5-(((cyclopentyl(methyl)carbamoyl)oxy)methyl)-1-methyl-1H-1,2,3-triazol-4-yl)-2-methylphenoxy)cyclohexane-1-carboxylic acid] |
| 3750 nM | Cc1cc(-c2nnn(C)c2COC(=O)N(C)CCC(C)C)ncc1O[C@H]1CCC[C@H](C(=O)O)C1 [Example 42, (1S,3S)-3-((6-(5-(((isopentyl(methyl)carbamoyl)oxy)methyl)-1-methyl-1H-1,2,3-triazol-4-yl)-4-methylpyridin-3-yl)oxy)cyclohexane-1-carboxylic acid] |
| 7 nM | CCCCN(C)C(=O)OCc1c(-c2ccc(O[C@H]3CCC[C@H](C(=O)O)C3)cn2)nnn1C [Example 43, (1S,3S)-3-((6-(5-(((butyl(methyl)carbamoyl)oxy)methyl)-1-methyl-1H-1,2,3-triazol-4-yl)pyridin-3-yl)oxy)cyclohexane-1-carboxylic acid] |
| 6 nM | CN(C(=O)OCc1c(-c2ccc(O[C@H]3CCC[C@H](C(=O)O)C3)c(F)c2)nnn1C)C1CCCC1 [Example 44, (1S,3S)-3-(4-(5-(((cyclopentyl(methyl)carbamoyl)oxy)methyl)-1-methyl-1H-1,2,3-triazol-4-yl)-2-fluorophenoxy)cyclohexane-1-carboxylic acid] |
| 6 nM | CCCCN(C)C(=O)OCc1c(-c2ccc(O[C@H]3CCC[C@H](C(=O)O)C3)c(F)c2)nnn1C [Example 46, (1S,3S)-3-(4-(5-(((butyl(methyl)carbamoyl)oxy)methyl)-1-methyl-1H-1,2,3-triazol-4-yl)-2-fluorophenoxy)cyclohexane-1-carboxylic acid] |
| 3 nM | CC(C)CCN(C)C(=O)OCc1c(-c2ccc(O[C@H]3CCC[C@H](C(=O)O)C3)c(F)c2)nnn1C [Example 47, (1S,3S)-3-(2-fluoro-4-(5-(((isopentyl(methyl)carbamoyl)oxy)methyl)-1-methyl-1H-1,2,3-triazol-4-yl)phenoxy)cyclohexane-1-carboxylic acid] |
| 197 nM | C[C@@H](C1CC1)N(C)C(=O)OCc1c(-c2ccc(O[C@H]3CCC[C@H](C(=O)O)C3)cc2)nnn1C [Example 52, (1S,3S)-3-(4-(5-(((((S)-1-cyclopropylethyl)(methyl)carbamoyl)oxy)methyl)-1-methyl-1H-1,2,3-triazol-4-yl)phenoxy)cyclohexane-1-carboxylic acid] |
| 440 nM | CC(C)CN(C)C(=O)OCc1c(-c2ccc(O[C@H]3CCC[C@H](C(=O)O)C3)cc2)nnn1C [Example 53, (1S,3S)-3-(4-(5-(((isobutyl(methyl)carbamoyl)oxy)methyl)-1-methyl-1H-1,2,3-triazol-4-yl)phenoxy)cyclohexane-1-carboxylic acid] |
| 10 nM | C[C@H](C1CC1)N(C)C(=O)OCc1c(-c2ccc(O[C@H]3CCC[C@H](C(=O)O)C3)c(F)c2)nnn1C [Example 70, (1S,3S)-3-(4-(5-(((((R)-1-cyclopropylethyl)(methyl)carbamoyl)oxy)methyl)-1-methyl-1H-1,2,3-triazol-4-yl)-2-fluorophenoxy)cyclohexane-1-carboxylic acid] |
| 2780 nM | CN(C(=O)OCc1c(-c2ccc(O[C@@H]3CCC[C@@H](C(=O)NS(C)(=O)=O)C3)cc2)nnn1C)C1CCCC1 [Example 72, (1-Methyl-4-(4-(((1R,3R)-3-((methylsulfonyl)carbamoyl)cyclohexyl)oxy)phenyl)-1H-1,2,3-triazol-5-yl)methyl cyclopentyl(methyl)carbamate] |
| 62 nM | CN(C(=O)OCc1c(-c2ccc(O[C@H]3CCC[C@H](C(=O)O)C3)cc2)nnn1C)C1CCC1 [Example 73, (1S,3S)-3-(4-(5-(((cyclobutyl(methyl)carbamoyl)oxy)methyl)-1-methyl-1H-1,2,3-triazol-4-yl)phenoxy)cyclohexane-1-carboxylic acid] |
| 100 nM | CN(C(=O)OCc1c(-c2ccc(O[C@H]3CCC[C@H](C(=O)O)C3)cc2)nnn1C)C(C1CC1)C1CC1 [Example 74, (1S,3S)-3-(4-(5-((((Dicyclopropylmethyl)(methyl)carbamoyl)oxy)methyl)-1-methyl-1H-1,2,3-triazol-4-yl)phenoxy)cyclohexanecarboxylic acid] |
| 20 nM | CCCC1(N(C)C(=O)OCc2c(-c3ccc(O[C@H]4CCC[C@H](C(=O)O)C4)cc3)nnn2C)CC1 [Example 75, (1S,3S)-3-(4-(1-methyl-5-(((methyl(1-propylcyclopropyl)carbamoyl)oxy)methyl)-1H-1,2,3-triazol-4-yl)phenoxy)cyclohexane-1-carboxylic acid] |
